Earlier results on 2 molecules are cited in US5508269A, “Aminoglycoside formulation for aerosolization” (priority 1994, dated 1996).

For this data set the following is noted: aerosol administration, carbenicillin and gentamicin, twenty CF patients; Lancet 1981; cited from earlier work.

Turning to `CC1(C)S[C@@H]2[C@H](NC(=O)C(C(=O)O)c3ccccc3)C(=O)N2[C@H]1C(=O)O` (some centres unmarked) [carbenicillin], the “health of CF patients (in words)” value is “can improve the health of CF patients”.

Take gentamicin: the “health of CF patients (in words)” value is given as “can improve the health of CF patients”.
